Test results from patent US20230140522A1, “COMPOSITION FOR AMELIORATING OR PREVENTING DECREASES IN BONE STRENGTH” (priority 2020, published 2023).

Tests used:
[1] = test system: osteoprogenitor cell MC3T3-E1; assay: Alkaline phosphatase activity after ornithine addition, MC3T3-E1, influence of BMP-2 concentration; format: cell-based; settings: ornithine 5 mg/mL, 7 days, vs ornithine no addition
Procedure: The cells were placed in a 10 cm petri dish using a medium and cultured in a CO2 incubator (5% CO2, 37° C.). The medium was changed every other day, and the cells were collected when they reached 80% confluence and used for the test.
The cells were adjusted with medium to 1.2x10^5 cells/0.2 mL/well and seeded in a 48-well plate. […] After 7 days, the cells were washed once with PBS, 50 µL of 0.1% Triton-X was added, and the mixture was further sonicated for 1 min to prepare a cell lysate. The test was performed with n=4 and the medium was changed every 3-4 days.
ALP activity of the above-mentioned cell lysate was measured by LabAssay ALP. With this kit, ALP activity was measured from the amount of p-nitrophenol per unit amount of protein produced within a given period of time. The amount of protein in the solution was measured using Micro BCA Protein Assay Reagent Kit.
(§1) The test was a two-sided test with Student’s t-test, and P<0.05 (less than 5% of null hypothesis) or more was judged as significant difference. The data in the graph is shown in mean±standard error.

[2] = test system: osteoprogenitor cell MC3T3-E1; assay: Osteocalcin (osteoblast differentiation marker) production amount after ornithine addition, MC3T3-E1; format: cell-based; settings: ornithine 5.0 mg/mL, 14 days culture, culture supernatant, vs no addition of ornithine
Procedure: (§2) The cells were adjusted with medium to 1.2x10^5 cells/0.2 mL/well and seeded in a 48-well plate. […] After culturing for 7 days, the cells were washed once with PBS for ALP activity measurement and then cryopreserved together with the plate. In addition, after culturing for 14 days, the culture supernatant was sampled for measurement of the amount of osteocalcin used in the below-mentioned Experimental Example 2, and cryopreserved. The test was performed with n=5 and the medium was changed every 3-4 days.
For the measurement of the amount of osteocalcin in the culture supernatant, the supernatant was diluted 10-fold and the measurement was performed using Mouse Osteocalcin EIA kit.
as §1

[3] = test system: osteoprogenitor cell MC3T3-E1; assay: Alkaline phosphatase (osteoblast differentiation marker) activity after ornithine addition, MC3T3-E1; format: cell-based; settings: 7 days culture, vs no addition of ornithine
Procedure: The cells were placed in a T-75 flask using a medium and cultured in a CO2 incubator (5% CO2, 37° C.). The medium was changed every other day, and the cells were collected when they reached 80% confluence and used for the test.
as §2
The cells were washed with PBS and lysed with 60 µL/well of cell lysing agent (Cell-LyEX1 containing 2 mM PMSF). After stirring the plate at room temperature for 30 min, the supernatant was diluted 5-fold and the obtained solution was used as a sample for measurement. ALP activity in the cells was measured by LabAssay ALP. With this kit, ALP activity was measured from the amount of p-nitrophenol per unit amount of protein produced within a given period of time. The amount of protein in the solution was measured using Micro BCA Protein Assay Reagent Kit.
as §1

[4] = test system: osteoporosis-disuse muscle atrophy simultaneous onset mouse model; assay: Gastrocnemius muscle weight, osteoporosis-disuse muscle atrophy simultaneous onset mouse model; format: in vivo; settings: OVX mice with cast fixation, ornithine 1% blended feed, vs OVX (ornithine non-administration with cast fixation) group
[5] = test system: osteoclast progenitor cell RAW264; assay: Osteoclast number measurement (TRAP staining) after ornithine addition, RAW264; format: cell-based; settings: 50 ng/mL RANKL, 7 days, vs ornithine non-addition
Procedure: The cells were placed in a T-75 flask using a medium and cultured in a CO2 incubator (5% CO2, 37° C.). The medium was changed every other day, and the cells were collected when they reached 80% confluence and used for the test. Cells were prepared in a test medium at 3x10^3 cells/0.1 mL/well and seeded in a 96 well plate. […] After culturing for 7 days, TRAP staining was performed, and TRAP staining-positive and multinucleated cells were counted, based on which the ability to suppress differentiation into osteoclasts was examined by comparison. The medium was changed every 3-4 days. The test was performed with n=5. The test was a two-sided test with Student’s t-test, and P<0.05 (less than 5% of null hypothesis) or more was judged as significant difference. The data in the graph is shown in mean±standard error.

Cl.NCCC[C@H](N)C(=O)O [ornithine, L-Ornithine Monohydrochloride]
alkaline phosphatase activity ([1]; BMP-2 50 ng/mL): significantly increased | alkaline phosphatase activity ([1]; BMP-2 100 ng/mL): significantly increased | alkaline phosphatase activity ([1]; BMP-2 200 ng/mL): significantly increased | osteocalcin production amount [2]: significantly increased | alkaline phosphatase activity ([3]; ornithine 0.2 mg/mL): significantly increased | alkaline phosphatase activity ([3]; ornithine 1.0 mg/mL): significantly increased | alkaline phosphatase activity ([3]; ornithine 5.0 mg/mL): significantly increased | gastrocnemius muscle weight (per body weight) [4]: increased | number of osteoclasts ([5]; ornithine 0.02 mg/mL): decreased | number of osteoclasts ([5]; ornithine 0.1 mg/mL): significantly decreased | number of osteoclasts ([5]; ornithine 0.5 mg/mL): significantly decreased
